From US20200171015A1, “METHODS OF TREATMENT FOR CYSTIC FIBROSIS” (Vertex Pharmaceuticals Incorporated, priority 2017, published 2020)
Marks after values point to notes of the source that are not given here.

How the values were obtained:
[1] = system: CFTR; conditions: disclosed in PCT Publication No. WO 2016/057572; cited from earlier work
[2] = Previous studies of Compound I, safety and tolerability; type: in vivo, human
[3] = Preclinical reproductive toxicology studies; conditions: in vivo
[4] = system: people with CF who have two copies of the F508del mutation (F/F); assay: Phase 2 study Part 2: efficacy (ppFEV1, sweat chloride); type: in vivo, human; conditions: Part 2 F/F
Description: (§1) The safety of Compound I in triple combination with Compounds II and III is evaluated in CF subjects in a 2-part, randomized, double-blind, placebo- and Compound II/III-controlled, parallel-group, multicenter study. Parts 1 and 2 include a Screening Period, a 2-week Treatment Period, and a Safety Follow-up Visit. Part 2 also includes a 4-week Run-in Period before the Treatment Period and a 2-week Washout Period after the Treatment Period.
In Part 2, two dose levels of Compound I (200 and 300 mg q12h) in triple combination with Compound II (100 mg qd) and Compound III (150 mg q12h) is evaluated in subjects with the F508del/F508del genotype.
Part 2 has two cohorts (Cohorts 2A and 2B). In Cohort 2A, the triple combination of Compound I at 200 mg q12h, Compound II at 100 mg qd, and Compound III at 150 mg q12h is evaluated in subjects with the F508del/F508del genotype. In Cohort 2B, the triple combination of Compound I at 300 mg q12h, Compound II at 100 mg qd, and Compound III at 150 mg q12h is evaluated in subjects with the F508del/F508del genotype. The combination of placebo, Compound II, and Compound III is the comparator for both cohorts.
(§2) Primary endpoints for the study include: safety and tolerability assessments based on adverse events (AEs), clinical laboratory values, standard 12-lead electrocardiograms (ECGs), vital signs, and pulse oximetry. Secondary endpoints include: absolute change in sweat chloride concentrations from baseline at Day 15; absolute change in percent predicted forced expiratory volume in 1 second (ppFEV1) from baseline at Day 15; relative change in ppFEV1 from baseline at Day 15; absolute change in Cystic Fibrosis Questionnaire-Revised (CFQ-R) respiratory domain score from baseline at Day 15; and PK parameters of Compound I, Compound II, Compound III, and metabolites of Compounds II and III.
(§3) In this Phase 2 randomized, double-blind study, Compound I (100 mg, 200 mg and 300 mg q12h) in combination with Compound II (100 mg qd) and Compound III (150 mg q12h) in people with CF ages 18 and older who have one F508del mutation and one minimal function mutation and in people who have two copies of the F508del mutation was studied. Primary endpoints as described above in Example 6 were for safety and tolerability. Secondary endpoints included absolute change in ppFEV1 and change in sweat chloride.
In Part 2 of the study, the triple combination was evaluated for two weeks in 14 patients ages 18 and older who had two copies of the F508del mutation, who were already receiving the combination of Compound II and Compound III (4 weeks, 4 in placebo and 10 in Compound I 200 mg). A summary of the within-group lung function (ppFEV) (primary endpoint) and sweat chloride data (secondary endpoint) for the triple combination treatment period, from baseline (end of the 4-week Compound II/Compound III run-in period), through Day 15 is provided below.
A summary of the within-group lung function (ppFEV) (primary endpoint) and sweat chloride data (secondary endpoint) from patients in Part 2 of the study who received the triple combination including 300 mg of Compound I for 4 weeks is provided below.

[5] = system: people with CF who have one F508del mutation and one minimal function mutation (F/MF); assay: Phase 2 study Part 1: efficacy (ppFEV1, sweat chloride, CFQ-R); type: in vivo, human; conditions: Part 1 F/MF
Description: as §1
In Part 1, three dose levels of Compound I (100, 200, and 300 mg q12h) in triple combination with Compound II (100 mg qd) and Compound III (150 mg q12h) is evaluated in subjects with the F508del/MF genotype.
Part 1 has three cohorts (Cohorts IA, IB, and IC). In Cohort 1A, the triple combination of Compound I at 100 mg q12h, Compound II at 100 mg qd, and Compound III at 150 mg q12h is evaluated in subjects with the F508del/MF genotype. In Cohort IB, the triple combination of Compound I at 200 mg q12h, Compound II at 100 mg qd, and Compound III at 150 mg q12h is evaluated in subjects with the F508del/MF genotype. In Cohort IC, the triple combination of Compound I at 300 mg q12h, Compound II at 100 mg qd, and Compound III at 150 mg q12h is evaluated in subjects with the F508del/MF genotype. Triple placebo is the comparator for all three cohorts
as §2, §3
In Part 1 of the study, the triple combination was evaluated for two weeks in 34 patients ages 18 and older who had one F508de/mutation and one minimal function mutation (8 in combined placebo, 6 in Compound I 100 mg, 10 in Compound 1 200 mg, and 10 in Compound 1 300 mg). A summary of the within-group ppFEV (primary endpoint) and sweat chloride data (secondary endpoint) through Day 15 is provided below.

[6] = Example 4: randomized, double-blind, placebo-controlled single- and multiple-dose escalation study, safety and tolerability; type: in vivo, human; conditions: healthy volunteers
Text: A randomized, double-blind, placebo-controlled, single- and multiple-dose, dose-escalation study was conduced in healthy volunteer subjects. Subjects were randomized to receive Compound I or placebo (Part A and Part B), and triple combination of Compound I, Compound II, and Compound III, or triple placebo (Part C).

[7] = Compound I 200 mg in triple combination with Compound II and Compound III, n 10
[8] = Compound I 300 mg in triple combination with Compound II and Compound III, n 21
[9] = Compound I 100 mg in triple combination with Compound II and Compound III, n 6

For `CC(C)COc1cc(F)cc(-c2ccc(C(=O)NS(=O)(=O)c3cccc(N)n3)c(N3C[C@@H](C)CC3(C)C)n2)c1` [Compound I, N-[(6-amino-2-pyridyl)sulfonyl]-6-(3-fluoro-5-isobutoxy-phenyl)-2-[(4S)-2,2,4-trimethylpyrrolidin-1-yl]pyridine-3-carboxamide], the “EC30 as CFTR modulator” value [1] is given as less than 3 µM, the Safety and tolerability ([2]; multiple doses up to 300 mg q12h in combination with Compound II (100 mg qd) and Compound III (150 mg q12h), after 14 days of dosing) is given as “generally safe and tolerated” and the Safety and tolerability ([2]; single doses up to 2000 mg and multiple doses up to 400 mg q12h) is given as “generally safe and well tolerated”. The Hemolysis ([2]; subjects with glucose-6-phosphate dehydrogenase (G6PD) deficiency) was “treatment-emergent hemolysis in a subject who was found to have glucose-6-phosphate dehydrogenase (G6PD) deficiency”, the “Findings in preclinical reproductive toxicology studies” value [3] was “no adverse findings of note” and the “Sweat Chloride, Abs. Change from Baseline, Day 15 Results” value [4, 7] was −21.3. For the same compound, the “ppFEV1, Abs. Change from Baseline, Day 15 Results” value [4, 7] was 7.3, the “Sweat Chloride, Abs. Change from Baseline, Day 15 Results” value [4, 8] was −23.9 and the “Sweat Chloride, Abs. Change from Baseline, Day 29 Results” value [4, 8] was −22.3. For the same compound, the “ppFEV1, Abs. Change from Baseline, Day 15 Results” value [4, 8] was 5.1, the “ppFEV1, Abs. Change from Baseline, Day 29 Results” value [4, 8] was 6.5 and the “Sweat Chloride, Abs. Change from Baseline, Day 15 Results” value [5, 9] was −19.5. The “ppFEV1, Abs. Change from Baseline, Day 15 Results” value [5, 9] was 5.7, the “ppFEV1, Abs. Change from Baseline, Day 15 Results” value [5, 7] was 9.7 and the “Sweat Chloride, Abs. Change from Baseline, Day 15 Results” value ([5]; Compound I 200 mg in triple combination with Compound II and Compound III, n 10, missing data from 2 subjects) was −13.6^a. For the same compound, the “Sweat Chloride, Abs. Change from Baseline, Day 15 Results” value ([5]; Compound I 300 mg in triple combination with Compound II and Compound III, n 10) was −27.5, the “ppFEV1, Abs. Change from Baseline, Day 15 Results” value ([5]; Compound I 300 mg in triple combination with Compound II and Compound III, n 10, missing data from 2 subjects) was 8.0^a and the “Deaths, serious or severe adverse events” value ([6]; all parts of the study) was “no deaths or serious or severe adverse events”. The “Severity of adverse events” value ([6]; all parts of the study) was “mild or moderate”, the Dose-limiting adverse events ([6]; multiple doses of 800 mg q12h) was “Dose-limiting adverse events were observed” and the Tolerability ([6]; multiple doses up to 400 mg q12h for 14 days) was “well tolerated”. For the same compound, the Tolerability ([6]; single doses from 50 mg up to 2000 mg) was “well tolerated” and the Tolerability ([6]; up to 300 mg q12h in triple combination with Compound II (100 mg qd) and Compound III (150 mg q12h) for 13 days) was “well tolerated”.
